≈ marks a conversion by molar mass, not a printed value. Like-named read-outs stand apart in the source and are kept apart here.
How the values were obtained:
P. aeruginosa KW799/wt = test: Agar diffusion antibacterial susceptibility assay; assay type: cell-based, Pseudomonas aeruginosa; details: 37° C.; for zone of inhibition at 200 µM / zone of inhibition at 100 µM: Pseudomonas aeruginosa, KW799/WT, 24 h, read-out: Diameter of growth inhibition zones; for zone of inhibition at 200 µM / Diameter of growth inhibition zones: 50 μL of 0.2 mM solution; for Diameter of growth inhibition zones: 24 hours; for zone of inhibition at 100 µM: 50 μL of 0.1 mM solution
Experimental: (§1) All liquids and media were sterilized by autoclaving (121° C., 15 min) before use. All aqueous solutions and media were prepared using distilled, deionized, and filtered water (Millipore Milli-Q Advantage A10 Water Purification System). Luria broth (LB) was purchased from VWR. Mueller-Hinton No. 2 broth (MHII broth; cation adjusted) was purchased from Sigma-Aldrich (St. Louis, Mo.). Iron-deficient (—Fe) MHII broth was prepared by adding 0.8 mL of a 1 mg/mL sterile aq. solution of 2,2′-bipyridine to 49.2 mL of MHII broth. Iron-rich (+Fe) MHII broth was prepared by adding 0.8 mL of a 1 mg/mL sterile aq. solution of FeCl3 to 49.2 mL of MHII broth. Mueller-Hinton No. 2 agar (MHII agar; HiMedia Laboratories) was purchased from VWR. Iron-deficient (−Fe) MHII agar was prepared by adding 0.5 mL of a 1 mg/mL sterile aq. solution of 2,2′-bipyridine to 34 mL of melted MHII agar with gentle mixing. Iron-rich (+Fe) MHII agar was prepared by adding 0.5 mL of a 1 mg/mL sterile aq. solution of FeCl3 to 34 mL of melted MHII agar with gentle mixing. See also Wencewicz, T. A. Dissertation, University of Notre Dame, Notre Dame, Ind., 2011, for relevant techniques.
(§2) Antibacterial Susceptibility Testing by the Agar Diffusion Assay.
(§3) Antibacterial activity of the compounds was determined by a modified Kirby-Bauer agar diffusion assay. Overnight cultures of test organisms were grown in LB broth for 18-24 h and standard suspensions of […] were prepared in saline solution (0.9% NaCl) according to a 0.5 BaSO4 McFarland Standard. This standardized suspension (0.1 mL) was added to 34 mL of sterile, melted agar (−Fe or +Fe) tempered to 47-50° C. After gentle mixing, the inoculated agar media was poured into a sterile plastic petri dish (145 mm×20 mm) and allowed to solidify near a flame with the lid ajar for about 30 min. Wells of 9.0 mm diameter were cut from the petri dish agar and filled with exactly 50 μL of the test sample solution. The petri dish was incubated at 37° C. for 18-24 h and the inhibition zone diameters were measured (mm) with an electronic caliper after 24 h.

P. aeruginosa Pa6 = test: Agar diffusion antibacterial susceptibility assay; assay type: cell-based, Pseudomonas aeruginosa; details: for Diameter of growth inhibition zones: −Fe agar; for activity against clinical isolate Pa6 (agar diffusion, in words): even under iron-deficient conditions
Experimental: as §1, §2, §3

[1] = tested on: P. aeruginosa K648 (pvd−, pch−); test: Agar diffusion antibacterial susceptibility assay; assay type: cell-based, Pseudomonas aeruginosa; details: for zone of inhibition at 200 µM / zone of inhibition at 100 µM: Pseudomonas aeruginosa, 24 h, read-out: Diameter of growth inhibition zones, P. aeruginosa K648 (pvd−, pch−), 37° C., 24 hours; for zone of inhibition at 200 µM: 50 μL of 0.2 mM solution; for zone of inhibition at 100 µM: 50 μL of 0.1 mM solution; for activity against K648 strain (agar diffusion, in words): iron-rich medium
Experimental: as §1, §2, §3

P. aeruginosa KW799/61 = test: microbe, parasite or virus in culture; assay type: cell-based, Pseudomonas aeruginosa; details: for Diameter of growth inhibition zones: P. aeruginosa KW799/61
Experimental: as §1, with “All” for “All liquids and media were sterilized by autoclaving (121° C., 15 min) before use. All”, “mixing.” for “mixing. See also Wencewicz, T. A. Dissertation, University of Notre Dame, Notre Dame, Ind., 2011, for relevant techniques.”
as §2
as §3, with “After gentle mixing, the inoculated agar media was poured into a sterile plastic petri dish (145 mm×20 mm) and allowed to solidify near a flame with the lid ajar for about 30 min.” left out

E. coli ATCC 25922 = test: MIC90 by broth microdilution assay; assay type: cell-based, Escherichia coli; details: for MIC90: Escherichia coli, ATCC25922, 20 h, E. coli ATCC 25922, 37° C., 20 h
Experimental: ^aMIC90 values (μM) were determined using the broth microdilution method in Mueller-Hinton broth No. 2 (MHII) with visual end point analysis according to the CLSI guidelines (Methods for Dilution Antimicrobial Susceptibility Tests for Bacteria that Grow Aerobically, 8th ed. (Villanova, Pa., USA), Clinical and Laboratory Standards Institute (CLSI), 2009, approved standard document M07-A7). ^bEach compound was tested in triplicate.
as §1
Determination of MIC90 Values by the Broth Microdilution Assay.
Antibacterial activity of the compounds was determined by measuring their minimum inhibitory concentrations (MIC90's) using the broth microdilution method according to the Clinical and Laboratory Standards Institute (CLSI, formerly the NCCLS) guidelines. Each well of a 96-well microtiter plate was filled with 50 μL of sterile broth media (−Fe or +Fe). Each test compound was dissolved in DMSO making a 20 mM solution, and then diluted with sterile broth media (−Fe or +Fe) to 400 or 800 μM. Exactly 50 μL of the compound solution was added to the first well of the microtiter plate and 2-fold serial dilutions were made down each row of the plate. Exactly 50 μL of bacterial inoculum (5×10^5 CFU/mL in broth media) was then added to each well giving a total volume of 100 μL/well. The plate was incubated at 37° C. for 20 h and then each well was examined for bacterial growth. The MIC90 was recorded as the lowest compound concentration (μM) required to inhibit 90% of bacterial growth as judged by turbidity of the culture media relative to a row of wells filled with a DMSO standard.

[2] = P. aeruginosa Pa6, 50 μL of 0.2 mM solution, 37° C., 24 hours
[3] = Pseudomonas aeruginosa, P. aeruginosa Pa6, +Fe agar, 50 μL of 0.2 mM solution, 37° C., 24 hours, read-out: Diameter of growth inhibition zones
[4] = Pseudomonas aeruginosa, KW799/61, 24 h, read-out: Diameter of growth inhibition zones, P. aeruginosa KW799/61, +Fe agar, 50 μL of 0.2 mM solution, 37° C., 24 hours
[5] = Pseudomonas aeruginosa, KW799/61, 24 h, read-out: Diameter of growth inhibition zones, P. aeruginosa KW799/61, −Fe agar, 50 μL of 0.2 mM solution, 37° C., 24 hours
[6] = −Fe (iron-deficient) MHII broth

In the case of CC1(C)S[C@@H]2[C@H](NC(=O)[C@H](N)c3ccc(O)cc3)C(=O)N2[C@H]1C(=O)O [Amoxicillin, reference compound], the zone of inhibition at 200 µM (P. aeruginosa KW799/wt; +Fe agar) is reported as 27 mm, the “Diameter of growth inhibition zones” value (P. aeruginosa KW799/wt; −Fe agar) is reported as 18p and the “Diameter of growth inhibition zones” value (P. aeruginosa Pa6; [2]) is reported as 0 mm. It also gave a zone of inhibition at 200 µM (P. aeruginosa Pa6; [3]) of 0 mm, a zone of inhibition at 200 µM ([1]; +Fe agar) of 0 mm and a zone of inhibition at 200 µM ([1]; −Fe agar) of 0 mm. The “activity against permeable mutant (large zones of inhibition, in words)” value (P. aeruginosa KW799/61; P. aeruginosa permeable mutant K799/61) was “highly active”, the zone of inhibition at 200 µM (P. aeruginosa KW799/61; [4]) was 42 mm and the zone of inhibition at 200 µM (P. aeruginosa KW799/61; [5]) was 39 mm. The MIC90 (E. coli ATCC 25922; +Fe (iron-rich) MHII broth) was 4.17 µM (≈ 1.52 µg/mL) and the MIC90 (E. coli ATCC 25922; [6]) was 4.17 µM (≈ 1.52 µg/mL).
In the case of CC1(C)S[C@@H]2[C@H](NC(=O)[C@H](N)c3ccccc3)C(=O)N2[C@H]1C(=O)O [Ampicillin, reference compound], the “Diameter of growth inhibition zones” value (P. aeruginosa KW799/wt; −Fe agar) is reported as 23p, the “Diameter of growth inhibition zones” value (P. aeruginosa Pa6; [2]) is reported as 0 mm and the zone of inhibition at 200 µM (P. aeruginosa Pa6; [3]) is reported as 0 mm. For the same compound, the zone of inhibition at 200 µM ([1]; +Fe agar) was 0 mm, the zone of inhibition at 200 µM ([1]; −Fe agar) was 0 mm and the zone of inhibition at 200 µM (P. aeruginosa KW799/61; [4]) was 40 mm. For the same compound, the zone of inhibition at 200 µM (P. aeruginosa KW799/61; [5]) was 40 mm, the MIC90 (E. coli ATCC 25922; +Fe (iron-rich) MHII broth) was 16.7 µM (≈ 5.84 µg/mL) and the MIC90 (E. coli ATCC 25922; [6]) was 12.5 µM (≈ 4.37 µg/mL).
For CC(=O)Oc1cccc(C(=O)NCCCC(CCCNC(=O)c2cccc(OC(C)=O)c2OC(C)=O)(CCCNC(=O)c2cccc(OC(C)=O)c2OC(C)=O)NC(=O)CCC(=O)NC(C(=O)NC2C(=O)N3C2SC(C)(C)C3C(=O)O)c2ccccc2)c1OC(C)=O (stereo not shown) [Compound 10], the zone of inhibition at 100 µM (P. aeruginosa KW799/wt; +Fe agar) was 20 mm, the zone of inhibition at 100 µM (P. aeruginosa KW799/wt; −Fe agar) was 24 mm and the “Diameter of growth inhibition zones” value (P. aeruginosa Pa6; P. aeruginosa Pa6, 50 μL of 0.1 mM solution, 37° C., 24 hours) was 0 mm. For the same compound, the zone of inhibition at 100 µM (P. aeruginosa Pa6; Pseudomonas aeruginosa, P. aeruginosa Pa6, +Fe agar, 50 μL of 0.1 mM solution, 37° C., 24 hours, read-out: Diameter of growth inhibition zones) was 0 mm, the “activity against clinical isolate Pa6 (agar diffusion, in words)” value (P. aeruginosa Pa6) was “no activity” and the zone of inhibition at 100 µM ([1]; +Fe agar) was 0 mm. The zone of inhibition at 100 µM ([1]; −Fe agar) was 15 mm, the “activity against K648 strain (agar diffusion, in words)” value [1] was “inactive” and the “Diameter of growth inhibition zones” value (P. aeruginosa KW799/61; +Fe agar, 50 μL of 0.1 mM solution, 37° C., 24 hours) was 13P. It also gave a zone of inhibition at 100 µM (P. aeruginosa KW799/61; Pseudomonas aeruginosa, KW799/61, 24 h, read-out: Diameter of growth inhibition zones, P. aeruginosa KW799/61, −Fe agar, 50 μL of 0.1 mM solution, 37° C., 24 hours) of 21 mm, an MIC90 (E. coli ATCC 25922; +Fe (iron-rich) MHII broth) of 150 µM (≈ 194 µg/mL) and an MIC90 (E. coli ATCC 25922; [6]) of 1.56 µM (≈ 2.02 µg/mL). For the same compound, the “increase in activity against E. coli relative to ampicillin” value (E. coli ATCC 25922; MIC compared with parent drug) was 8 fold.
For CC(=O)Oc1cccc(C(=O)NCCCC(CCCNC(=O)c2cccc(OC(C)=O)c2OC(C)=O)(CCCNC(=O)c2cccc(OC(C)=O)c2OC(C)=O)NC(=O)CCC(=O)NC(C(=O)NC2C(=O)N3C2SC(C)(C)C3C(=O)O)c2ccc(O)cc2)c1OC(C)=O (stereo not shown) [Compound 11], the zone of inhibition at 200 µM (P. aeruginosa KW799/wt; +Fe agar) was 25 mm, the zone of inhibition at 200 µM (P. aeruginosa KW799/wt; −Fe agar) was 26 mm and the “Diameter of growth inhibition zones” value (P. aeruginosa Pa6; [2]) was 0 mm. For the same compound, the zone of inhibition at 200 µM (P. aeruginosa Pa6; [3]) was 0 mm, the “activity against clinical isolate Pa6 (agar diffusion, in words)” value (P. aeruginosa Pa6) was “no activity” and the zone of inhibition at 200 µM ([1]; +Fe agar) was 0 mm. For the same compound, the zone of inhibition at 200 µM ([1]; −Fe agar) was 17 mm, the “activity against K648 strain (agar diffusion, in words)” value [1] was “inactive” and the “Diameter of growth inhibition zones” value (P. aeruginosa KW799/61; +Fe agar, 50 μL of 0.2 mM solution, 37° C., 24 hours) was 13P. It also gave a zone of inhibition at 200 µM (P. aeruginosa KW799/61; [5]) of 26 mm, an MIC90 (E. coli ATCC 25922; +Fe (iron-rich) MHII broth) of 100 µM (≈ 131 µg/mL) and an MIC90 (E. coli ATCC 25922; [6]) of 6.25 µM (≈ 8.19 µg/mL). For the same compound, the “potency against E. coli relative to amoxicillin (in words)” value (E. coli ATCC 25922; MIC compared with parent drug) was “almost as equipotent as amoxicillin”.

Reference: US9302012B2, “Anti-bacterial siderophore-aminopenicillin conjugates” (University of Notre Dame Du Lac, priority 2012, dated 2016)
